Test results: publication PMC8308845, “Discovery of Novel Chemical Series of OXA-48 β-Lactamase Inhibitors by High-Throughput Screening” (Pharmaceuticals, 2021)

What was measured:
OXA-48 [1] = target: T1, OXA-48 (Klebsiella pneumoniae, UniProt Q6XEC0); assay: OXA-48 primary enzymatic assay (nitrocefin substrate, fluorescence-quenching readout); format: biochemical; conditions: dose–response, median of triplicate wells; 15 min preincubation, 25 µM nitrocefin
T1 construct: made in house; host or cells: E. coli BL21(DE3), T7 expression system
Procedure: After an initial pilot run (three plates, consisting of 960 randomly selected compounds), the primary screening of the subset plates was carried out at 20 µM in single point against OXA-48 enzyme in a nitrocefin-based assay, using the fluorescence-quenching readout. This enzymatic assay employs the cephalosporin nitrocefin as OXA-48 substrate and takes advantage of the fluorescent properties of white microtiter plates. Chromogenic nitrocefin is hydrolyzed by β-lactamases to yield a product with increased absorbance properties (~495 nm) that quenches the plate fluorescence by absorbing the plate’s emission light. In this assay, test compounds that inhibit OXA-48 catalytic activity are predicted to reduce nitrocefin quenching of plate fluorescence, resulting in a quantitative increase in well fluorescence (ON-system for inhibitors). The nitrocefin-based epi-absorbance readout system has been successfully applied in HTS campaigns on other β-lactamases, such as IMP-1 and VIM-2, with the identification of inhibitors belonging to novel scaffolds displaying a favourable degree of selectivity and sub-micromolar potency.
The screening results were expressed as activity percent. […] Overall, the primary assay robustness was good, with Robust Z Prime factor (RZ′) equal to 0.86.
In total, 256 active molecules (125 from the subset and 131 from the full set) were then assayed in dose–response at eight concentrations from 60 to 0.002 µM with interplate triplicate data points.
The blaOXA gene coding for the OXA-48 ß-lactamase, originally cloned from the K. pneumonia 11978 (a clinical isolate from Istanbul Faculty Hospital, Istanbul, Turkey) was overexpressed via a T7 expression system in E. coli BL21(DE3), and its product, native protein, (final yield of 30 mg/L of culture) was subjected to several purification steps, including ion-exchange chromatography with Q-Sepharose and 20 mM Tris-HCl buffer (pH 9.0), followed by chromatography with S-Sepharose columns and 100 mM sodium phosphate buffer (pH 5.8). Elution of the beta-lactamase was performed with a K2SO4 gradient. Peaks of beta-lactamase activity were concentrated and were dialyzed with 100 mM phosphate buffer (pH 7.0). The OXA-48 enzyme was purified to homogeneity (with a degree of purity around 95.4%.)-as measured by 12% SDS PAGE [23]. OXA-48 protein stock solution (2 mg/mL) was finally prepared in 20 mM Hepes (pH 8,1). OXA-48 β-lactamase specific activity was measured by following the hydrolysis of 100 μM nitrocefin (ε: 17,000 M-1 cm^−1 at 482 nm; Δε: 15,000 M-1 cm^−1 at 482 nm) and corresponding to 60.45 μmoles min^−1 mg^−1 of OXA-48 (kcat = 28.85 s^−1) enzyme. A MW of 28,147 g/mol, calculated from the enzyme sequence was confirmed by MALDI-TOF analysis with a Mass error of ± 2.8 Da.
The primary assay was developed to monitor the enzymatic activity of OXA-48 taking advantage of the spectroscopic properties of white microtiter plates (Optiplate-384, PerkinElmer, #6007290), as indicated by Zuck et al.. Nitrocefin is chromogenic substrate for beta-lactamases with λmax = 395 nm (yellow). Upon hydrolysis by OXA-48, nitrocefin yields (2R)-2-[(R)-carboxy[2-(thiophen-2-yl)acetamido]methyl]-5-[(E)-2-(2,4-dinitrophenyl)ethenyl]-3,6-dihydro-2H-1,3-thiazine-4-carboxylic acid, with increased absorbance properties at λmax = 495 nm. Spectroscopic features of the reaction product are exploited to quench the plate intrinsic fluorescence by absorbing the plate’s emission light, which can be monitored by exciting the reaction at 485 nm and recording the emission at 520 nm. Therefore, the primary assay for HTS was an ON-assay, in which compounds targeting OXA-48 were predicted to elicit an increase of the fluorescence signal.
The primary assay was performed in reaction buffer (20 mM Hepes pH 8.0, 12.5 mM NaCl, 0.005% BSA, 0.0005% Brij-35) in the presence of 0.0014 ng/µL OXA-48 and 25 µM nitrocefin in a final volume of 20 µL/well in 384 MTP format. […]

OXA-48 [2] = target: T1, OXA-48; assay: Dilution after preincubation of OXA-48 with inhibitors; format: biochemical
Procedure: To confirm the reversibility of OXA-48 inhibition by compounds ID1 and ID2, dilution-after-preincubation tests were also performed. Specifically, the experiments were conducted by preincubating (0 and 60 min) five-fold concentrated test compounds and OXA-48 enzyme, next diluting (1:5) the assay well to the standard reaction conditions and adding the nitrocefin substrate. In parallel, a control experiment with compounds ID1 and ID2 tested under the standard protocol was also run. Based on the assay design, reversible inhibitors are expected to regain enzyme activity after dilution of the enzyme-inhibitor (EI) complex and show no significant difference between AC50 values from samples preincubated under high-concentration and standard conditions. Conversely, irreversible inhibitors are envisaged not to recover any enzyme activity following dilution of the tight EI complex, which will translate in a […] in OXA-48 AC50 of high-concentration preincubated samples.
In order to validate the results obtained in the time-dependent inhibition assay, dose–response curves of reference inhibitor tazobactam, test compounds and enzyme mix were prepared as above described and 5-fold concentrated. Compounds (20 μL of 10X compounds) and enzyme (10 μL 20X enzyme in order to have a 0.0014 ng/µL OXA-48 final concentration) were preincubated for a time period of 60 min with the selected compounds and 90 min with tazobactam. The preincubation time was identified in the time-dependent inhibition experiment as suitable to detect a shift of the IC50 value. At the end of preincubation, the mix was diluted 1:5 times to restore the standard assay conditions as described for time-dependent inhibition. The reactions were started by transferring of 15 μL of enzyme-compounds or control diluted from preincubation plate into assay plate and adding 5 μL 4X nitrocefin substrate (25 µM final concentration) after 60 or 90 min. In parallel, a control experiment was assembled under the same conditions, but omitting the preincubation time between compounds and OXA-48.
a. If the AC50 value observed in the standard assay conditions was substantially unaffected by the preincubation with the 5X samples, the corresponding compound was classified as putative reversible inhibitor.

[3] = preincubation time 0 min, concentrated compound and enzyme, diluted 1:5 before nitrocefin, read-out: OXA-48 AC50, High Dose Preincubation
[4] = preincubation time 0 min, read-out: OXA-48 AC50, Standard Preincubation
[5] = preincubation time 60 min, concentrated compound and enzyme, diluted 1:5 before nitrocefin, read-out: OXA-48 AC50, High Dose Preincubation
[6] = preincubation time 60 min, read-out: OXA-48 AC50, Standard Preincubation

T1 sequence (Q6XEC0 23-265, looked up): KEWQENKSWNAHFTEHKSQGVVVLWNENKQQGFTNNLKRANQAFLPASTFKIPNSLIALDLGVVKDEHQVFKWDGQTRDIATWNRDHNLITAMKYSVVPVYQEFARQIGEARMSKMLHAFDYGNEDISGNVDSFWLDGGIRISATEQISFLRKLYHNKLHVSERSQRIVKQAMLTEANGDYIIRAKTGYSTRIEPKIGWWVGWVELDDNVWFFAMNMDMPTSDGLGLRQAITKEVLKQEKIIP

Row | SMILES | AC50 (OXA-48 [1]) [µM] | AC50 with concentrated preincubation relative to AC50 under standard assay protocol (OXA-48 [2]; 90 min preincubation) | AC50 (OXA-48 [2]; [3]) [µM] | AC50 (OXA-48 [2]; [4]) [µM] | AC50 (OXA-48 [2]; preincubation time 90 min, concentrated compound and enzyme, diluted 1:5 before nitrocefin, read-out: OXA-48 AC50, High Dose Preincubation) [µM] | AC50 (OXA-48 [2]; preincubation time 90 min, read-out: OXA-48 AC50, Standard Preincubation) [µM] | AC50 (OXA-48 [2]; [5]) [µM] | AC50 (OXA-48 [2]; [6]) [µM]
1 | C[C@]1(Cn2ccnn2)[C@H](C(=O)O)N2C(=O)C[C@H]2S1(=O)=O [tazobactam, reference compound] | 0.84 | almost three-fold lower | 0.79 | 0.82 | 0.097 | 0.26 | – | –
2 | CCc1ccc(-c2n[nH]c3nc(-c4ccc(C(=O)O)cc4)cc(C(=O)O)c23)cc1 [ID2] | 0.99 | – | 1.01 | 2.31 | – | – | 1.45 | 2.44
3 | O=C(O)c1ccc(C=Nn2c(S)nnc2-c2ccccc2)cc1 [ID1] | 1.14 | – | 0.63 | 1.73 | – | – | 1.09 | 1.93
